Source: US10821100B2, “Triazolone compounds as mPGES-1 inhibitors” (Glenmark Pharmaceuticals S.A., priority 2012, dated 2020)

Molecular target: T1, Recombinant human mPGES-1 (Homo sapiens, UniProt O14684)
T1 construct: made in house; host or cells: CHO cells (crude microsomal fractions)
T1 sequence (O14684 1-152): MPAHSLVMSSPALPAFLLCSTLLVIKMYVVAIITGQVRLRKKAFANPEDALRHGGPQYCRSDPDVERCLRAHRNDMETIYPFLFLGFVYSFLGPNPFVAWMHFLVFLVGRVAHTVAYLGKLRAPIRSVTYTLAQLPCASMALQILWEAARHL
Experiment: In-vitro screening of mPGES-1 inhibitors (inhibition of PGE2 formation from PGH2, HTRF detection)
Format: biochemical
Settings: mPGES-1 enzyme; for inhibition at 1 µM: 1 μM test compound, read-out: Percentage inhibition at 1 μM; for inhibition at 1 µM / inhibition at 10 µM: crude microsomal fractions; for inhibition at 10 µM: 10 μM test compound, read-out: Percentage inhibition at 10 μM; for IC50: class symbols
Text: In-Vitro Protocol for Screening of mPGES-1 Inhibitors: mPGES-1 (Microsomal prostaglandin E synthase-1) is a microsomal enzyme that converts endoperoxide substrate PGH2 (prostaglandin H2) to product PGE2 (prostaglandin E2) by isomerization in the presence of reduced glutathione (GSH). mPGES-1 inhibitors were screened by assessing their ability to inhibit formation of PGE2 from PGH2 in the presence of mPGES-1 using an anti-PGE2 antibody based detection method. Recombinant human mPGES-1 was generated in-house by expression in CHO cells (Ouellet M et al. (2002), Protein Expression and Purification 26: 489-495). The assay was set up using crude microsomal fractions at a protein concentration of 40-60 μg/mL. Test compounds were prepared in 100% dimethyl sulfoxide (DMSO) to obtain 20 mM stock solution and then diluted using assay buffer comprising 0.1 M Potassium phosphate buffer with 2 mM EDTA. The final concentration of DMSO in the reaction was 0.5% (v/v). Negative controls were comprised of all assay reagents except the enzyme. Positive controls were comprised of the enzyme reaction in the absence of any inhibitor. Test compounds were incubated for 10 minutes in assay buffer containing 2.5 mM GSH and mPGES-1 enzyme followed by addition of PGH2 at a concentration of 15 μM for 1 minute. The reaction was stopped by addition of Stannous chloride (11 mg/ml) and PGE2 levels were measured ([…] et al. (2005), Journal of Biomolecular Screening 10(6) 599-605; Goedken R E et al. (2008), Journal of Biomolecular Screening 13 (7): 619-625) by HTRF kit (CisBio)). Inhibition of mPGES-1 enzyme activity was measured using the percent of reaction occurring in the positive control. Concentration response curves were plotted using percent inhibition of maximum enzyme reaction. The IC50 value was calculated from the concentration response curve by nonlinear regression analysis using GraphPad PRISM software.

Row | SMILES | inhibition at 1 µM [%] | inhibition at 10 µM [%] | IC50 [nM]
1 | O=c1[nH]c(-c2c(F)cccc2Cl)nn1-c1ccc(C#Cc2ccc(C(F)(F)F)cn2)cc1 [Example-13, 5-(2-Chloro-6-fluorophenyl)-2-(4-{[5-(trifluoromethyl)pyridin-2-yl]ethynyl}phenyl)-2,4-dihydro-3H-1,2,4-triazol-3-one] | 86.3 | 90.4 | > 100
2 | O=c1[nH]c(-c2c(F)cccc2Cl)nn1-c1ccc(C#Cc2ccncc2Cl)cc1 [Example-14, 5-(2-Chloro-6-fluorophenyl)-2-{4-[(3-chloropyridin-4-yl)ethynyl]phenyl}-2,4-dihydro-3H-1,2,4-triazol-3-one] | 96 | 95.8 | 50 to 100
3 | O=c1[nH]c(-c2c(F)cccc2Cl)nn1-c1ccc(C#Cc2cnc(N3CCOCC3)nc2)cc1 [Example-15, 3-(2-Chloro-6-fluorophenyl)-1-(4-((2-morpholinopyrimidin-5-yl)ethynyl)phenyl)-1H-1,2,4-triazol-5(4H)-one] | 64.2 | 83.8 | –
4 | O=c1[nH]c(-c2c(F)cccc2Cl)nn1-c1ccc(C#Cc2ccc(N3CCOCC3)nc2)cc1 [Example-16, 5-(2-Chloro-6-fluorophenyl)-2-(4-{[6-(morpholin-4-yl)pyridin-3-yl]ethynyl}phenyl)-2,4-dihydro-3H-1,2,4-triazol-3-one] | 40.9 | 92.3 | –
5 | O=C(NCC1CC1)c1ccc(-n2nc(-c3c(F)cccc3Cl)[nH]c2=O)cc1 [Example-17, 4-[3-(2-Chloro-6-fluorophenyl)-5-oxo-4,5-dihydro-1H-1,2,4-triazol-1-yl]-N-(cyclopropylmethyl)benzamide] | 2.52 | 44.1 | –
6 | O=C(NCc1ccccc1C(F)(F)F)c1ccc(-n2nc(-c3c(F)cccc3Cl)[nH]c2=O)cc1 [Example-18, 4-[3-(2-Chloro-6-fluorophenyl)-5-oxo-4,5-dihydro-1H-1,2,4-triazol-1-yl]-N-[2-(trifluoromethyl)benzyl]benzamide] | 56.2 | 98.1 | –
7 | COc1ccc(-n2nc(-c3c(F)cccc3Cl)[nH]c2=O)cc1C(=O)NCC1CC1 [Example-19, 5-[3-(2-Chloro-6-fluorophenyl)-5-oxo-4,5-dihydro-1H-1,2,4-triazol-1-yl]-N-(cyclopropylmethyl)-2-methoxybenzamide] | 5.11 | 29.7 | –
8 | COc1ccc(-n2nc(-c3c(F)cccc3Cl)[nH]c2=O)cc1C(=O)NCc1ccccc1C(F)(F)F [Example-20, 5-[3-(2-Chloro-6-fluorophenyl)-5-oxo-4,5-dihydro-1H-1,2,4-triazol-1-yl]-2-methoxy-N-[2-(trifluoromethyl)benzyl]benzamide] | 22.4 | 87.4 | –
9 | COc1ccc(-n2nc(-c3c(F)cccc3Cl)[nH]c2=O)cc1C(=O)NC1(c2ccccc2C(F)(F)F)CC1 [Example-21, 5-[3-(2-Chloro-6-fluorophenyl)-5-oxo-4,5-dihydro-1H-1,2,4-triazol-1-yl]-2-methoxy-N-{1-[2-(trifluoromethyl)phenyl]cyclopropyl}benzamide] | 76.1 | 91.8 | –
10 | O=C(NC1(c2ccc(C(F)(F)F)cc2)CC1)c1ccc(-n2nc(-c3c(F)cccc3Cl)[nH]c2=O)cc1 [Example-22, 4-[3-(2-Chloro-6-fluorophenyl)-5-oxo-4,5-dihydro-1H-1,2,4-triazol-1-yl]-N-{1-[4-(trifluoromethyl)phenyl]cyclopropyl}benzamide] | 39.3 | 99.7 | –
11 | COc1ccc(-n2nc(-c3c(F)cccc3Cl)[nH]c2=O)cc1C(=O)NC1(c2ccc(C(F)(F)F)cc2)CC1 [Example-23, 5-[3-(2-Chloro-6-fluorophenyl)-5-oxo-4,5-dihydro-1H-1,2,4-triazol-1-yl]-2-methoxy-N-[1-[4-(trifluoromethyl)phenyl]cyclopropyl]benzamide] | 13.2 | 52.9 | –
12 | O=C(NC1(c2ccccc2C(F)(F)F)CC1)c1ccc(-n2nc(-c3c(F)cccc3Cl)[nH]c2=O)cc1 [Example-24, 4-(3-(2-Chloro-6-fluorophenyl)-5-oxo-4,5-dihydro-1H-1,2,4-triazol-1-yl)-N-(1-(2-(trifluoromethyl)phenyl)cyclopropyl)benzamide] | 71 | 83.1 | –
13 | COc1cc(-n2nc(-c3c(F)cccc3Cl)[nH]c2=O)ccc1C(=O)NCc1ccccc1C(F)(F)F [Example-25, 4-[3-(2-Chloro-6-fluorophenyl)-5-oxo-4,5-dihydro-1H-1,2,4-triazol-1-yl]-2-methoxy-N-[2-(trifluoromethyl)benzyl]benzamide] | 74.4 | 88.9 | > 100
14 | COc1cc(-n2nc(-c3c(F)cccc3Cl)[nH]c2=O)ccc1C(=O)NC1(c2ccccc2C(F)(F)F)CC1 [Example-26, 4-(3-(2-Chloro-6-fluorophenyl)-5-oxo-4,5-dihydro-1H-1,2,4-triazol-1-yl)-2-methoxy-N-(1-(2-(trifluoromethyl)phenyl)cyclopropyl)benzamide] | 80.6 | 88.1 | > 100
15 | COc1cc(-n2nc(-c3c(F)cccc3Cl)[nH]c2=O)ccc1C(=O)NC1(c2ccc(C(F)(F)F)cc2)CC1 [Example-27, 4-(3-(2-Chloro-6-fluorophenyl)-5-oxo-4,5-dihydro-1H-1,2,4-triazol-1-yl)-2-methoxy-N-(1-(4-(trifluoromethyl)phenyl)cyclopropyl)benzamide] | 72.8 | 97.5 | –
16 | O=C(NCc1ccc(F)cc1C(F)(F)F)c1ccc(-n2nc(-c3c(F)cccc3Cl)[nH]c2=O)cc1 [Example-28, 4-(3-(2-Chloro-6-fluorophenyl)-5-oxo-4,5-dihydro-1H-1,2,4-triazol-1-yl)-N-(4-fluoro-2-(trifluoromethyl)benzyl)benzamide] | 72.2 | 95.5 | –
17 | O=C(Nc1ccc(C(F)(F)F)cc1)c1ccc(-n2nc(-c3c(F)cccc3Cl)[nH]c2=O)cc1 [Example-29, 4-(3-(2-Chloro-6-fluorophenyl)-5-oxo-4,5-dihydro-1H-1,2,4-triazol-1-yl)-N-(4-(trifluoromethyl)phenyl)benzamide] | 79.2 | 85.8 | > 100
18 | O=c1[nH]c(-c2c(F)cccc2Cl)nn1-c1ccc(-c2nc(-c3ccc(F)cc3)no2)cc1 [Example-30, 3-(2-Chloro-6-fluorophenyl)-1-(4-(3-(4-fluorophenyl)-1,2,4-oxadiazol-5-yl)phenyl)-1H-1,2,4-triazol-5(4H)-one] | 89.6 | 94.5 | < 50
19 | O=C(Nc1cccc(C(F)(F)F)c1)c1ccc(-n2nc(-c3c(F)cccc3Cl)[nH]c2=O)cc1 [Example-31, 4-(3-(2-Chloro-6-fluorophenyl)-5-oxo-4,5-dihydro-1H-1,2,4-triazol-1-yl)-N-(3-(trifluoromethyl)phenyl)benzamide] | 96.9 | 98.6 | 50 to 100
20 | O=C(Nc1ccc(F)c(C(F)(F)F)c1)c1ccc(-n2nc(-c3c(F)cccc3Cl)[nH]c2=O)cc1 [Example-32, 4-(3-(2-Chloro-6-fluorophenyl)-5-oxo-4,5-dihydro-1H-1,2,4-triazol-1-yl)-N-(4-fluoro-3-(trifluoromethyl)phenyl)benzamide] | 88.8 | 94 | 50 to 100
21 | COc1cc(-n2nc(-c3c(F)cccc3Cl)[nH]c2=O)ccc1C(=O)Nc1ccc(F)c(C(F)(F)F)c1 [Example-33, 4-(3-(2-Chloro-6-fluorophenyl)-5-oxo-4,5-dihydro-1H-1,2,4-triazol-1-yl)-N-(4-fluoro-3-(trifluoromethyl)phenyl)-2-methoxybenzamide] | 89.4 | 96.8 | < 50
22 | O=C(Nc1cc(C(F)(F)F)ccc1F)c1ccc(-n2nc(-c3c(F)cccc3Cl)[nH]c2=O)cc1 [Example-34, 4-(3-(2-Chloro-6-fluorophenyl)-5-oxo-4,5-dihydro-1H-1,2,4-triazol-1-yl)-N-(2-fluoro-5-(trifluoromethyl)phenyl)benzamide] | 70.7 | 92.3 | –
23 | Cc1ccc(NC(=O)c2ccc(-n3nc(-c4c(F)cccc4Cl)[nH]c3=O)cc2)c(F)c1 [Example-35, 4-(3-(2-Chloro-6-fluorophenyl)-5-oxo-4,5-dihydro-1H-1,2,4-triazol-1-yl)-N-(2-fluoro-4-methylphenyl)benzamide] | 37.4 | 59.1 | –
